Test results as given in patent publication US12172985B1, “6-(6-bromo-2-oxo-2H-chromen-3-yl)-4-(3-bromophenyl)-2-alkoxynicotinonitrile as antimicrobial compounds” (KING FAISAL UNIVERSITY, priority 2023, dated 2024).

Tests used:
Assay type in all cases: cell-based
different microbes = test: Antimicrobial testing, overall conclusion; conditions: summary of Tables 1 and 2, bacteria and fungi
Experimental: (§1) The agar plate disc-diffusion method was applied. Sterilized filter papers (6 mm in diameter) were wetted with 10 μL of a solution of compounds 6-(6-bromo-2-oxo-2H-chromen-3-yl)-4-(3-bromophenyl)-2-ethoxynicotinonitrile 1 or 6-(6-bromo-2-oxo-2H-chromen-3-yl)-4-(3-bromophenyl)-2-methoxynicotinonitrile 2 to be tested, containing […], and the discs were allowed to air dry. The discs were then placed onto the surface of agar plates (nutrient agar for bacteria and Sabouraud's dextrose agar for fungi) seeded with the test organism. Each plate contained 15 mL of the agar medium, previously seeded with 0.2 mL of the broth culture of each organism pregrown for 18 hours. The plates were incubated at 37° C. for 48 hours, and 72 hours for fungi. The inhibition zones were measured in mm. Discs impregnated with DMSO were used as a control, and its inhibition zone was subtracted from the tested compound actual inhibition zone.
(§2) The results of the antimicrobial testing can be observed in Tables 1 and 2, below, using ciprofloxacin as a reference.
Their antibacterial activity was screened against gram positive bacteria namely Bacillus cereus and Staphylococcus aureus and gram-negative bacterial strains namely Pseudomonas aeruginosa and Escherichia coli, while their antifungal activity was screened against Aspergillus flavus and Chrysosporium keratinophilum.

Escherichia coli = test: Agar plate disc-diffusion, antibacterial inhibition zone; conditions: DMSO control zone subtracted
Experimental: as §1, §2

Staphylococcus aureus = test: as above; conditions: DMSO control zone subtracted
Experimental: as §1, §2

Pseudomonas aeruginosa = test: as above; conditions: DMSO control zone subtracted
Experimental: as §1, §2

Bacillus Cereus = test: as above; conditions: DMSO control zone subtracted
Experimental: as §1, §2

[1] = tested on: Chrysosporium keratinophilum; test: Agar plate disc-diffusion, antifungal inhibition zone; conditions: DMSO control zone subtracted
Experimental: as §1, §2

Aspergillus flavus = test: as above; conditions: DMSO control zone subtracted
Experimental: as §1, §2

[2] = A = concentration of comp. = 10,000 μL
[3] = B = concentration of comp. = 30,000 μL
[4] = C = concentration of comp. = 50,000 μL

SMILES	antimicrobial activities (in words) (different microbes)	inhibition zone (Escherichia coli; [2])	inhibition zone (Escherichia coli; [3])	inhibition zone (Escherichia coli; [4])	inhibition zone (Staphylococcus aureus; [2])	inhibition zone (Staphylococcus aureus; [3])	inhibition zone (Staphylococcus aureus; [4])	inhibition zone (Pseudomonas aeruginosa; A = concentration of comp.)	inhibition zone (Pseudomonas aeruginosa; [3])	inhibition zone (Pseudomonas aeruginosa; [4])	inhibition zone (Bacillus Cereus; A =)	inhibition zone (Bacillus Cereus; [3])	inhibition zone (Bacillus Cereus; [4])	inhibition zone [1, 2]	inhibition zone [1, 3]	inhibition zone [1, 4]	inhibition zone (Aspergillus flavus; [2])	inhibition zone (Aspergillus flavus; [3])	inhibition zone (Aspergillus flavus; [4])
COc1nc(-c2cc3cc(Br)ccc3oc2=O)cc(-c2cccc(Br)c2)c1C#N [Compound 2, 6-(6-bromo-2-oxo-2H-chromen-3-yl)-4-(3-bromophenyl)-2-methoxynicotinonitrile]	high antimicrobial activities	28 mm	35 mm	48 mm	15 mm	23 mm	29 mm	25 mm	32 mm	37 mm	27 mm	29 mm	37 mm	24 mm	28 mm	42 mm	24 mm	27 mm	39 mm
O=C(O)c1cn(C2CC2)c2cc(N3CCNCC3)c(F)cc2c1=O [Cip., ciprofloxacin, reference compound]	–	30 mm	39 mm	60 mm	43 mm	44 mm	53 mm	29 mm	30 mm	53 mm	29 mm	30 mm	42 mm	29 mm	30 mm	53 mm	29 mm	30 mm	42 mm
CCOc1nc(-c2cc3cc(Br)ccc3oc2=O)cc(-c2cccc(Br)c2)c1C#N [Compound 1, 6-(6-bromo-2-oxo-2H-chromen-3-yl)-4-(3-bromophenyl)-2-ethoxynicotinonitrile]	high antimicrobial activities	28 mm	37 mm	48 mm	16 mm	19 mm	33 mm	24 mm	28 mm	38 mm	23 mm	26 mm	36 mm	25 mm	28 mm	39 mm	20 mm	24 mm	34 mm
